Measurements from article PMC7327804 (Data in Brief, 2020).

How the values were obtained:
HA-hNTS2 receptor = target: T1, HA-hNTS2 receptor (Homo sapiens, UniProt O95665); assay: Cell-surface ELISA for internalization of HA-hNTS2 receptor; assay type: cell-based; settings: CHO-K1 cells transfected with HA-hNTS2, 1 µM ligand, 60 min at 37 °C in serum-free media, mean ± SEM of at least three independent determinations
T1 construct: expressed in transfected cells; host or cells: CHO-K1, transient transfection
Procedure: Receptor internalization using CHO-K1 cells transiently transfected with either HA-NTS1 or HA-NTS2 was carried out as previously described in details [9], [10], [11]. […] Cells were then washed with PBS and remaining ELISA steps form the detailed protocol were followed and unchanged. Absorbance was read at 450 nm and data were normalized according to the protocol.

[1] = test system: NTS1 (p42/p44 MAPK phosphorylation); assay: Western blot of p42/p44 (ERK1/2) phosphorylation in CHO-K1 cells stably expressing NTS1; assay type: cell-based, human; settings: CHO-K1 cells stably expressing NTS1, serum-starved, 1 µM ligand, various time points
Procedure: (§1) Cells stably expressing NTS1 or NTS2 were grown for 48 h in complete culture media before being incubated for 16 h in serum-free media. Cells were then stimulated with either NT or JMV2009. Aspiration of media and addition of ice-cold PBS blocked any further protein phosphorylation. Cells were then lysed in RIPA containing proteases and phosphatases inhibitors before being centrifuged at 8000 g for 15 min.
(§2) Separation, transfer and blotting steps were performed as described previously using anti-phosphorylated ERK1/2 (Cell Signaling, cat# 4376S, lot 18, Danvers, MA; 1:1000, in TBS-T, 1% BSA) or anti-ERK1/2 (Cell Signaling, cat# 4695S, lot 28; 1:1000, in TBS-T, 1% BSA) as primary antibodies and HRP-conjugated anti-rabbit IgG from goat (Cell Signaling, cat# 7074S, lot 28; 1:5000, in TBS-T, 1% BSA) as secondary antibody for detection.

[2] = test system: NTS2 (p42/p44 MAPK phosphorylation); assay: Western blot of p42/p44 (ERK1/2) phosphorylation in 1321N1 cells stably expressing NTS2; assay type: cell-based, human; settings: 1321N1 cells stably expressing NTS2, serum-starved, 1 µM ligand, various time points
Procedure: as §1, §2

T1 sequence (O95665 whole entry): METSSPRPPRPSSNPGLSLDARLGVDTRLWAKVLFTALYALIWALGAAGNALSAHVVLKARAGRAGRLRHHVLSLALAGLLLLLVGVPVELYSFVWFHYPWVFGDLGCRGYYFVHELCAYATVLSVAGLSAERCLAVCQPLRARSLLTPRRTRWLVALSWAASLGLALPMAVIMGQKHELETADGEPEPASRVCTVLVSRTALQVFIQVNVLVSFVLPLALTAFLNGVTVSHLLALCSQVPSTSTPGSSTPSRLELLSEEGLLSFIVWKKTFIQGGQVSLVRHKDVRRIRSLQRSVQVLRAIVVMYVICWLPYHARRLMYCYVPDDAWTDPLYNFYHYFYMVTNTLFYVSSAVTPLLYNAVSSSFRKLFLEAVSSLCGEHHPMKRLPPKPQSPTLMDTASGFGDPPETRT

`CC[C@H](C)[C@H](NC(=O)[C@H](Cc1ccc(O)cc1)NC(=O)[C@@H]1C[Si](C)(C)CN1C(=O)[C@H](CCCCN)NC(=O)[C@@H](N)CCCCN)C(=O)N[C@@H](CC(C)C)C(=O)O` [JMV2009] was tested, and the NTS2 internalization (HA-hNTS2 receptor) was 15.1 ± 9.8%, the “phosphorylation of p42/p44 proteins (ERK 1/2), NTS1 cells” value [1] was “time-dependent phosphorylation” and the “phosphorylation of p42/p44 proteins (ERK 1/2), NTS2 cells” value [2] was “time-dependent phosphorylation”.
